In patent publication US7994320B2, “Narcistatin prodrugs” (priority 2002, dated 2011):

Tests used:
KM20L2 = assay: Human cancer cell line growth inhibition, colon KM20L2; assay type: cell-based
Experimental: (§1) Narciclasine cyclic phosphate prodrugs 3a-o were evaluated against a minipanel of human cancer cell lines and the murine P388 lymphocytic leukemia. The GI50 0.1-0.02 μg/ml strong activity range parallels that already reported for the parent, narciclasine (1). (Pettit, G. R.; Melody, N.; Herald, D. L. J. Org. Chem. 2001, 66, 2583-2587.)

MCF-7 = assay: Human cancer cell line growth inhibition, breast MCF-7; assay type: cell-based
Experimental: as §1

DU-145 = assay: Human cancer cell line growth inhibition, prostate DU-145; assay type: cell-based
Experimental: as §1

SF 268 = assay: Human cancer cell line growth inhibition, CNS SF 268; assay type: cell-based
Experimental: as §1

NCI-H460 = assay: Human cancer cell line growth inhibition, lung NCI-H460; assay type: cell-based
Experimental: as §1

BXPC-3 = assay: Human cancer cell line growth inhibition, pancreas BXPC-3; assay type: cell-based
Experimental: as §1

[1] = test system: P388 lymphocytic leukemia; conditions: U.S. National Cancer Institute research; cited from earlier work
M5076 sarcoma = conditions: U.S. National Cancer Institute research; cited from earlier work
[2] = test system: Erlich asciter cancer cells; conditions: cited from earlier work
Solubility in water = conditions: solvent not stated

Cesium Narcistatin [Compound 3f]
GI50 Colon KM20L2 (KM20L2): 0.66 µg/mL | GI50 Breast MCF-7 (MCF-7): 0.62 µg/mL | GI50 Prostate DU-145 (DU-145): 0.13 µg/mL | GI50 CNS SF 268 (SF 268): 0.33 µg/mL | GI50 Lung-NSC NCI-H460 (NCI-H460): >1 µg/mL | GI50 Pancreas-a BXPC-3 (BXPC-3): 0.41 µg/mL

O=C1N[C@@H]2C(=C[C@H](O)[C@H]3OP(=O)(O)O[C@H]32)c2cc3c(c(O)c21)OCO3.c1ccncc1 [Compound 3a, Pyridinium Narcistatin]
GI50 Colon KM20L2 (KM20L2): 0.34 µg/mL | GI50 Breast MCF-7 (MCF-7): 0.27 µg/mL | GI50 Prostate DU-145 (DU-145): 0.17 µg/mL | GI50 CNS SF 268 (SF 268): 0.15 µg/mL | GI50 Lung-NSC NCI-H460 (NCI-H460): 0.27 µg/mL | GI50 Pancreas-a BXPC-3 (BXPC-3): 0.22 µg/mL

Zinc Narcistatin [Compound 3i]
GI50 Colon KM20L2 (KM20L2): 0.16 µg/mL | GI50 Breast MCF-7 (MCF-7): 0.14 µg/mL | GI50 Prostate DU-145 (DU-145): 0.016 µg/mL | GI50 CNS SF 268 (SF 268): 0.053 µg/mL | GI50 Lung-NSC NCI-H460 (NCI-H460): 0.21 µg/mL | GI50 Pancreas-a BXPC-3 (BXPC-3): 0.069 µg/mL

C1COCCN1.O=C1N[C@@H]2C(=C[C@H](O)[C@H]3OP(=O)(O)O[C@H]32)c2cc3c(c(O)c21)OCO3 [Compound 3n, Morpholinium Narcistatin]
GI50 Colon KM20L2 (KM20L2): 0.54 µg/mL | GI50 Breast MCF-7 (MCF-7): 0.48 µg/mL | GI50 Prostate DU-145 (DU-145): 0.14 µg/mL | GI50 CNS SF 268 (SF 268): 0.24 µg/mL | GI50 Lung-NSC NCI-H460 (NCI-H460): >1 µg/mL | GI50 Pancreas-a BXPC-3 (BXPC-3): 0.25 µg/mL

C=C[C@@H]1CN2CC[C@@H]1C[C@H]2[C@@H](O)c1ccnc2ccc(OC)cc12.O=C1N[C@@H]2C(=C[C@H](O)[C@H]3OP(=O)(O)O[C@H]32)c2cc3c(c(O)c21)OCO3 [Compound 3k, Quinidinium Narcistatin]
GI50 Colon KM20L2 (KM20L2): 0.58 µg/mL | GI50 Breast MCF-7 (MCF-7): 0.5 µg/mL | GI50 Prostate DU-145 (DU-145): 0.22 µg/mL | GI50 CNS SF 268 (SF 268): 0.25 µg/mL | GI50 Lung-NSC NCI-H460 (NCI-H460): 0.77 µg/mL | GI50 Pancreas-a BXPC-3 (BXPC-3): 0.31 µg/mL

Sodium Narcistatin [Compound 3d]
GI50 Colon KM20L2 (KM20L2): 0.45 µg/mL | GI50 Breast MCF-7 (MCF-7): 0.56 µg/mL | GI50 Prostate DU-145 (DU-145): 0.12 µg/mL | GI50 CNS SF 268 (SF 268): 0.23 µg/mL | GI50 Lung-NSC NCI-H460 (NCI-H460): >1 µg/mL | GI50 Pancreas-a BXPC-3 (BXPC-3): 0.32 µg/mL

O=C1N[C@@H]2C(=C[C@H](O)[C@@H](O)[C@H]2O)c2cc3c(c(O)c21)OCO3 [narciclasine (1), narciclasine]
activity against in vivo growth of P388 lymphocytic leukemia [1]: active | activity against in vivo growth of M5076 sarcoma (M5076 sarcoma): active | inhibition of protein synthesis [2]: inhibit protein synthesis | solubility (Solubility in water): sparingly soluble

Calcium Narcistatin [Compound 3h]
GI50 Colon KM20L2 (KM20L2): 0.059 µg/mL | GI50 Breast MCF-7 (MCF-7): 0.059 µg/mL | GI50 Prostate DU-145 (DU-145): 0.0093 µg/mL | GI50 CNS SF 268 (SF 268): 0.031 µg/mL | GI50 Lung-NSC NCI-H460 (NCI-H460): 0.12 µg/mL | GI50 Pancreas-a BXPC-3 (BXPC-3): 0.045 µg/mL

C=C[C@@H]1CN2CC[C@@H]1C[C@@H]2[C@H](O)c1ccnc2ccc(OC)cc12.O=C1N[C@@H]2C(=C[C@H](O)[C@H]3OP(=O)(O)O[C@H]32)c2cc3c(c(O)c21)OCO3 [Compound 3l, Quininium Narcistatin]
GI50 Colon KM20L2 (KM20L2): 0.12 µg/mL | GI50 Breast MCF-7 (MCF-7): 0.12 µg/mL | GI50 Prostate DU-145 (DU-145): 0.013 µg/mL | GI50 CNS SF 268 (SF 268): 0.045 µg/mL | GI50 Lung-NSC NCI-H460 (NCI-H460): 0.17 µg/mL | GI50 Pancreas-a BXPC-3 (BXPC-3): 0.051 µg/mL

Piperazinium Narcistatin [Compound 3o]
GI50 Colon KM20L2 (KM20L2): 0.22 µg/mL | GI50 Breast MCF-7 (MCF-7): 0.17 µg/mL | GI50 Prostate DU-145 (DU-145): 0.032 µg/mL | GI50 CNS SF 268 (SF 268): 0.099 µg/mL | GI50 Lung-NSC NCI-H460 (NCI-H460): 0.24 µg/mL | GI50 Pancreas-a BXPC-3 (BXPC-3): 0.1 µg/mL

Imidazolium Narcistatin [Compound 3m]
GI50 Colon KM20L2 (KM20L2): >1 µg/mL | GI50 Breast MCF-7 (MCF-7): 0.9 µg/mL | GI50 Prostate DU-145 (DU-145): 0.44 µg/mL | GI50 CNS SF 268 (SF 268): 0.38 µg/mL | GI50 Lung-NSC NCI-H460 (NCI-H460): >1 µg/mL | GI50 Pancreas-a BXPC-3 (BXPC-3): 0.45 µg/mL

Magnesium Narcistatin [Compound 3g]
GI50 Colon KM20L2 (KM20L2): 0.31 µg/mL | GI50 Breast MCF-7 (MCF-7): 0.25 µg/mL | GI50 Prostate DU-145 (DU-145): 0.1 µg/mL | GI50 CNS SF 268 (SF 268): 0.14 µg/mL | GI50 Lung-NSC NCI-H460 (NCI-H460): 0.29 µg/mL | GI50 Pancreas-a BXPC-3 (BXPC-3): 0.19 µg/mL

Potassium Narcistatin [Compound 3e]
GI50 Colon KM20L2 (KM20L2): 0.56 µg/mL | GI50 Breast MCF-7 (MCF-7): 0.4 µg/mL | GI50 Prostate DU-145 (DU-145): 0.26 µg/mL | GI50 CNS SF 268 (SF 268): 0.19 µg/mL | GI50 Lung-NSC NCI-H460 (NCI-H460): 0.67 µg/mL | GI50 Pancreas-a BXPC-3 (BXPC-3): 0.36 µg/mL

O=C1NC2C(=CC(O)C3OP(=O)([O-])OC23)c2cc3c(c(O)c21)OCO3.O=C1NC2C(=CC(O)C3OP(=O)([O-])OC23)c2cc3c(c(O)c21)OCO3.[Mn+2] (stereo not shown) [Compound 3j, Manganese Narcistatin]
GI50 Colon KM20L2 (KM20L2): 0.13 µg/mL | GI50 Breast MCF-7 (MCF-7): 0.07 µg/mL | GI50 Prostate DU-145 (DU-145): 0.034 µg/mL | GI50 CNS SF 268 (SF 268): 0.04 µg/mL | GI50 Lung-NSC NCI-H460 (NCI-H460): 0.15 µg/mL | GI50 Pancreas-a BXPC-3 (BXPC-3): 0.049 µg/mL

Lithium Narcistatin [Compound 3c]
GI50 Colon KM20L2 (KM20L2): 0.26 µg/mL | GI50 Breast MCF-7 (MCF-7): 0.31 µg/mL | GI50 Prostate DU-145 (DU-145): 0.13 µg/mL | GI50 CNS SF 268 (SF 268): 0.17 µg/mL | GI50 Lung-NSC NCI-H460 (NCI-H460): 0.3 µg/mL | GI50 Pancreas-a BXPC-3 (BXPC-3): 0.25 µg/mL

Narcistatin [Compound 3b]
GI50 Colon KM20L2 (KM20L2): 0.53 µg/mL | GI50 Breast MCF-7 (MCF-7): 0.35 µg/mL | GI50 Prostate DU-145 (DU-145): 0.16 µg/mL | GI50 CNS SF 268 (SF 268): 0.22 µg/mL | GI50 Lung-NSC NCI-H460 (NCI-H460): 0.47 µg/mL | GI50 Pancreas-a BXPC-3 (BXPC-3): 0.33 µg/mL
